Results reported in ChEMBL document CHEMBL4507278 (2021).

Tests used:
[1] = target: Cyclin-dependent kinase 7 (Homo sapiens) (UniProt P50613); conditions: Compound concentration 1000.0 nM
[2] = target: Dual specificity protein kinase TTK (Homo sapiens) (UniProt P33981); conditions: Compound concentration 1000.0 nM
[3] = target: Phosphatidylinositol 3-kinase C2 domain-containing subunit gamma (Homo sapiens) (UniProt O75747); conditions: Compound concentration 1000.0 nM
[4] = target: Alpha-2B adrenergic receptor (Homo sapiens) (UniProt P18089); conditions: Compound concentration 10.0 uM
[5] = target: Tyrosine-protein kinase TXK (Homo sapiens) (UniProt P42681); conditions: Compound concentration 1000.0 nM
Tyrosine-protein kinase TXK (Homo sapiens), sequence (P42681 whole entry): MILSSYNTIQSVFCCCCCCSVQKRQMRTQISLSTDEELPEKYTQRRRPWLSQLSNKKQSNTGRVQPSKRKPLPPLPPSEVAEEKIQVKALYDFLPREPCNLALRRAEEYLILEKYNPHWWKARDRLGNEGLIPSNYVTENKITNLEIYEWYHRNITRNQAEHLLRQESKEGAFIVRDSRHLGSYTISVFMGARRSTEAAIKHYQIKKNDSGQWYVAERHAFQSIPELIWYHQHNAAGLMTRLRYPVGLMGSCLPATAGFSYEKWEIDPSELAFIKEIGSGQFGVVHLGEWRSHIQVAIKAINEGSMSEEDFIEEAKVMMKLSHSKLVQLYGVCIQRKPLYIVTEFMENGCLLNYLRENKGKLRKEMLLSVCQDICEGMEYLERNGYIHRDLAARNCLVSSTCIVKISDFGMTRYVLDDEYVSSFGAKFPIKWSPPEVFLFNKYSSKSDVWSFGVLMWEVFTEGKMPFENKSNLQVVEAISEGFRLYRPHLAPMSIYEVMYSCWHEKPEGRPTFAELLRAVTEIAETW

[6] = target: Tyrosine-protein kinase JAK2 (Homo sapiens) (UniProt O60674); conditions: Compound concentration 1000.0 nM
[7] = test system: eIF-2-alpha kinase GCN2 (Homo sapiens), Q9P2K8 [S808G]; conditions: Compound concentration 1000.0 nM
[8] = test system: Epidermal growth factor receptor (Homo sapiens), P00533 [UNDEFINED MUTATION]; conditions: Compound concentration 1000.0 nM
[9] = target: Activin receptor type-1B (Homo sapiens) (UniProt P36896); conditions: Compound concentration 1000.0 nM
[10] = target: Dual serine/threonine and tyrosine protein kinase (Homo sapiens) (UniProt Q6XUX3); conditions: Compound concentration 1000.0 nM
[11] = target: Tyrosine-protein kinase JAK3 (Homo sapiens) (UniProt P52333); conditions: Compound concentration 1000.0 nM
[12] = target: Serine/threonine-protein kinase SIK1 (Homo sapiens) (UniProt P57059); conditions: Compound concentration 1000.0 nM
[13] = target: Rho-associated protein kinase 1 (Homo sapiens) (UniProt Q13464); conditions: Compound concentration 1000.0 nM
[14] = target: Ephrin type-A receptor 2 (Homo sapiens) (UniProt P29317); conditions: Compound concentration 1000.0 nM
[15] = target: Serine/threonine-protein kinase MARK2 (Homo sapiens) (UniProt Q7KZI7); conditions: Compound concentration 1000.0 nM
[16] = target: Atypical kinase COQ8A, mitochondrial (Homo sapiens) (UniProt Q8NI60); conditions: Compound concentration 1000.0 nM
[17] = target: Epidermal growth factor receptor (Homo sapiens) (UniProt P00533); conditions: Compound concentration 1000.0 nM
[18] = target: Insulin-like growth factor 1 receptor (Homo sapiens) (UniProt P08069); conditions: Compound concentration 1000.0 nM
[19] = target: Muscarinic acetylcholine receptor M4 (Homo sapiens) (UniProt P08173); conditions: Compound concentration 10.0 uM
Muscarinic acetylcholine receptor M4 (Homo sapiens), sequence (P08173 whole entry): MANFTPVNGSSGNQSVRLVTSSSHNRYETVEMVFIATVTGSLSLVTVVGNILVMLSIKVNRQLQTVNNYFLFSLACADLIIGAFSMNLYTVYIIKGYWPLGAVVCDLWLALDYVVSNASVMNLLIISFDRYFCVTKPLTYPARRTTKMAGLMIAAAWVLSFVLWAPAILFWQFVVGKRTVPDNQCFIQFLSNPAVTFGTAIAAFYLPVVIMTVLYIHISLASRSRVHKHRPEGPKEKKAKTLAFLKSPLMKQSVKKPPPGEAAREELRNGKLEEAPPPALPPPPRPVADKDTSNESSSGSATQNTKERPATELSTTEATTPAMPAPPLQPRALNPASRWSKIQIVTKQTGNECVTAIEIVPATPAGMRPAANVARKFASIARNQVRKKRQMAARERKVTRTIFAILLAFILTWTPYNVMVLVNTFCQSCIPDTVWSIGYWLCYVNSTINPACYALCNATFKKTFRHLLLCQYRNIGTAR

[20] = target: Rho-associated protein kinase 2 (Homo sapiens) (UniProt O75116); conditions: Compound concentration 1000.0 nM
[21] = target: Vascular endothelial growth factor receptor 2 (Homo sapiens) (UniProt P35968); conditions: Compound concentration 1000.0 nM
[22] = target: Serine/threonine-protein kinase tousled-like 2 (Homo sapiens) (UniProt Q86UE8); conditions: Compound concentration 1000.0 nM
[23] = target: Serine/threonine-protein kinase Sgk1 (Homo sapiens) (UniProt O00141); conditions: Compound concentration 1000.0 nM
[24] = target: LIM domain kinase 2 (Homo sapiens) (UniProt P53671); conditions: Compound concentration 1000.0 nM
[25] = target: T1, Alpha-2A adrenergic receptor (Homo sapiens) (UniProt P08913); conditions: Compound concentration 10.0 uM
T1 sequence (whole entry): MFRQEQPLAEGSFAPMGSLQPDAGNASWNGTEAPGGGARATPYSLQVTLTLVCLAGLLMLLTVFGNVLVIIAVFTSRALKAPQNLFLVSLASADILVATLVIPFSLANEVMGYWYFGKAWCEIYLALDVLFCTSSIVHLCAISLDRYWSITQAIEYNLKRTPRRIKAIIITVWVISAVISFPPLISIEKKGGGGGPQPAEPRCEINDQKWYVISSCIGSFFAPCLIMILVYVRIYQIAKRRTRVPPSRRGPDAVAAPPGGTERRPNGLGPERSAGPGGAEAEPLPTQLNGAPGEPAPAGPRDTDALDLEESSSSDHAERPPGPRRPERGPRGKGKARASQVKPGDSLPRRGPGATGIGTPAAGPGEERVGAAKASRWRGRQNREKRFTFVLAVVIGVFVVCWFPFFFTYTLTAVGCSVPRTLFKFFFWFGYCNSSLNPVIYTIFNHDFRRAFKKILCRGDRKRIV

[26] = target: Serine/threonine-protein kinase NIM1 (Homo sapiens) (UniProt Q8IY84); conditions: Compound concentration 1000.0 nM
[27] = target: Phosphatidylinositol 3-kinase catalytic subunit type 3 (Homo sapiens) (UniProt Q8NEB9); conditions: Compound concentration 1000.0 nM
[28] = target: Serine/threonine-protein kinase Nek7 (Homo sapiens) (UniProt Q8TDX7); conditions: Compound concentration 1000.0 nM
[29] = target: Dual specificity testis-specific protein kinase 1 (Homo sapiens) (UniProt Q15569); conditions: Compound concentration 1000.0 nM
[30] = target: Mitogen-activated protein kinase 4 (Homo sapiens) (UniProt P31152); conditions: Compound concentration 1000.0 nM
[31] = target: Dual specificity tyrosine-phosphorylation-regulated kinase 1A (Homo sapiens) (UniProt Q13627); conditions: Compound concentration 1000.0 nM
[32] = test system: Epidermal growth factor receptor (Homo sapiens), P00533 [L861Q]; conditions: Compound concentration 1000.0 nM
[33] = target: Serine/threonine-protein kinase tousled-like 1 (Homo sapiens) (UniProt Q9UKI8); conditions: Compound concentration 1000.0 nM
[34] = target: TGF-beta receptor type-2 (Homo sapiens) (UniProt P37173); conditions: Compound concentration 1000.0 nM
[35] = target: Serine/threonine-protein kinase RIO2 (Homo sapiens) (UniProt Q9BVS4); conditions: Compound concentration 1000.0 nM
[36] = test system: Tyrosine-protein kinase ABL1 (Homo sapiens), P00519 [F317L]; conditions: Compound concentration 1000.0 nM
Tyrosine-protein kinase ABL1 (Homo sapiens), P00519 [F317L], sequence (P00519 whole entry F317L, canonical isoform): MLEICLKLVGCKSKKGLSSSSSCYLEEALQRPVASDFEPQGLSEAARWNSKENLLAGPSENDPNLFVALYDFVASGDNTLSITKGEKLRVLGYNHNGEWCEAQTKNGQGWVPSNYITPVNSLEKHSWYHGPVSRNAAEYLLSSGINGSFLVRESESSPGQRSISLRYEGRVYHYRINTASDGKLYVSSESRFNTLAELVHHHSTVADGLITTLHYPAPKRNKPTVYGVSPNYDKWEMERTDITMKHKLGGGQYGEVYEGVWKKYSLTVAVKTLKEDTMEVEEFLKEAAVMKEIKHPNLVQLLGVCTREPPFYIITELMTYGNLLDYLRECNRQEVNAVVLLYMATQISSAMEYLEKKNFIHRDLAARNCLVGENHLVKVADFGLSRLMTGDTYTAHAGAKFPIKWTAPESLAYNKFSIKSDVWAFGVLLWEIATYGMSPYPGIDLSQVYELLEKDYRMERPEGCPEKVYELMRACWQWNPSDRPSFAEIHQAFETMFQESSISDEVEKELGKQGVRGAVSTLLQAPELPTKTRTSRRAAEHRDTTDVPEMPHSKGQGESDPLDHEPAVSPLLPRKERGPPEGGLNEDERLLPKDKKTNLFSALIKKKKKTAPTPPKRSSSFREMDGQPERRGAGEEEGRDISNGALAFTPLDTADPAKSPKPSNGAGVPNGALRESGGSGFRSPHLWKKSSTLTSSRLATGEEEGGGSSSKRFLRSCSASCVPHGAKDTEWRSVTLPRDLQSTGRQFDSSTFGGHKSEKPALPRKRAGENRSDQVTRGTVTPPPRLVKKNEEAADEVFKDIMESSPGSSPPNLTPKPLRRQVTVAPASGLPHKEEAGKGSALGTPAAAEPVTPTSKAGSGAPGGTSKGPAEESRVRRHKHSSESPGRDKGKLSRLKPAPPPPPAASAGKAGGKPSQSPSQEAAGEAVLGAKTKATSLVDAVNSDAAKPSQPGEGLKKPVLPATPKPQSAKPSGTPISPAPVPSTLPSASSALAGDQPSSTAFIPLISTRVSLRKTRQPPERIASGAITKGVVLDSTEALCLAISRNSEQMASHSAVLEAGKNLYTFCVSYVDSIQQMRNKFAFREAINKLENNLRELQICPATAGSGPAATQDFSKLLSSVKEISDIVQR

[37] = test system: Phosphatidylinositol 4,5-bisphosphate 3-kinase catalytic subunit alpha isoform (Homo sapiens), P42336 [E545K]; conditions: Compound concentration 1000.0 nM
Phosphatidylinositol 4,5-bisphosphate 3-kinase catalytic subunit alpha isoform (Homo sapiens), P42336 [E545K], sequence (P42336 whole entry E545K, canonical isoform): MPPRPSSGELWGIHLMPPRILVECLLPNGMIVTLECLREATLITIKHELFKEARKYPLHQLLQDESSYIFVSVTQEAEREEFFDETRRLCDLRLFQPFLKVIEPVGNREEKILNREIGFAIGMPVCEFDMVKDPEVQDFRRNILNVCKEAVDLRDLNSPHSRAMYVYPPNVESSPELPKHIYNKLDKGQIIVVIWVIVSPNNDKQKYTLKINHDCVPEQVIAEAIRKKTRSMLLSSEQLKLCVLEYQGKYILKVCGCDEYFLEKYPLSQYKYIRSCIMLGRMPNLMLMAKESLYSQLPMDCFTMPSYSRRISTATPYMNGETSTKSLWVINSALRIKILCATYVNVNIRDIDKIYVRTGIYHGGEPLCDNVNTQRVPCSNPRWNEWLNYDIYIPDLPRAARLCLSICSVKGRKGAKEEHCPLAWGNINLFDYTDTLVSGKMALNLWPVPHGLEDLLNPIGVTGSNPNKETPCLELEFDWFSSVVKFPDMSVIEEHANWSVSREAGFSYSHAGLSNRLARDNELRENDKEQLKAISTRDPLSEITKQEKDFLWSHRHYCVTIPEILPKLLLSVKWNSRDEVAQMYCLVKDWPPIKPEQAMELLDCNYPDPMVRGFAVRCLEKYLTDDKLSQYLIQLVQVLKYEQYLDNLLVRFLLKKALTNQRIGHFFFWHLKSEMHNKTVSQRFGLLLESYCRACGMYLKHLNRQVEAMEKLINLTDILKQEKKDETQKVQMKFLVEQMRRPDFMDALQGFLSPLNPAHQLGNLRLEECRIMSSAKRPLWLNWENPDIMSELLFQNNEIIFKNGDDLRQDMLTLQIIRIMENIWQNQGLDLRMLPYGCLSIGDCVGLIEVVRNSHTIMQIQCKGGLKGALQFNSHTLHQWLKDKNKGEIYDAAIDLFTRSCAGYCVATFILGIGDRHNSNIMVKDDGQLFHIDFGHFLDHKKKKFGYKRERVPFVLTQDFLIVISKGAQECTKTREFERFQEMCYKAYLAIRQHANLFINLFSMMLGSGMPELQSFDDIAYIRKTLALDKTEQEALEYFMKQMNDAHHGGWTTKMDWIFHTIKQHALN

[38] = target: Serine/threonine-protein kinase 32A (Homo sapiens) (UniProt Q8WU08); conditions: Compound concentration 1000.0 nM
Serine/threonine-protein kinase 32A (Homo sapiens), sequence (Q8WU08 whole entry): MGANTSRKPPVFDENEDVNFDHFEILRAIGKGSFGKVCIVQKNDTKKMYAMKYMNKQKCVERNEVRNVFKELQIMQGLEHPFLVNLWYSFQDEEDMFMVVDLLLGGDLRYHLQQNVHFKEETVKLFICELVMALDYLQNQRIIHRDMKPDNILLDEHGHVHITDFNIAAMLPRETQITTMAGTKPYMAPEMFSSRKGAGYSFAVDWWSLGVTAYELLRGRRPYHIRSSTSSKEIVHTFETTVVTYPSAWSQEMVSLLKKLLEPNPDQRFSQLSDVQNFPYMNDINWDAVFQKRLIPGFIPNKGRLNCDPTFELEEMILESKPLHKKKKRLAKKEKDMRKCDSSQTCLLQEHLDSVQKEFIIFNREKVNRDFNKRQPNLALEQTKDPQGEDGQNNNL

[39] = target: Muscle, skeletal receptor tyrosine-protein kinase (Homo sapiens) (UniProt O15146); conditions: Compound concentration 1000.0 nM

Phosphatidylinositol 3-kinase C2 domain-containing subunit gamma (Homo sapiens), sequence (O75747 whole entry, the tested form may be a part): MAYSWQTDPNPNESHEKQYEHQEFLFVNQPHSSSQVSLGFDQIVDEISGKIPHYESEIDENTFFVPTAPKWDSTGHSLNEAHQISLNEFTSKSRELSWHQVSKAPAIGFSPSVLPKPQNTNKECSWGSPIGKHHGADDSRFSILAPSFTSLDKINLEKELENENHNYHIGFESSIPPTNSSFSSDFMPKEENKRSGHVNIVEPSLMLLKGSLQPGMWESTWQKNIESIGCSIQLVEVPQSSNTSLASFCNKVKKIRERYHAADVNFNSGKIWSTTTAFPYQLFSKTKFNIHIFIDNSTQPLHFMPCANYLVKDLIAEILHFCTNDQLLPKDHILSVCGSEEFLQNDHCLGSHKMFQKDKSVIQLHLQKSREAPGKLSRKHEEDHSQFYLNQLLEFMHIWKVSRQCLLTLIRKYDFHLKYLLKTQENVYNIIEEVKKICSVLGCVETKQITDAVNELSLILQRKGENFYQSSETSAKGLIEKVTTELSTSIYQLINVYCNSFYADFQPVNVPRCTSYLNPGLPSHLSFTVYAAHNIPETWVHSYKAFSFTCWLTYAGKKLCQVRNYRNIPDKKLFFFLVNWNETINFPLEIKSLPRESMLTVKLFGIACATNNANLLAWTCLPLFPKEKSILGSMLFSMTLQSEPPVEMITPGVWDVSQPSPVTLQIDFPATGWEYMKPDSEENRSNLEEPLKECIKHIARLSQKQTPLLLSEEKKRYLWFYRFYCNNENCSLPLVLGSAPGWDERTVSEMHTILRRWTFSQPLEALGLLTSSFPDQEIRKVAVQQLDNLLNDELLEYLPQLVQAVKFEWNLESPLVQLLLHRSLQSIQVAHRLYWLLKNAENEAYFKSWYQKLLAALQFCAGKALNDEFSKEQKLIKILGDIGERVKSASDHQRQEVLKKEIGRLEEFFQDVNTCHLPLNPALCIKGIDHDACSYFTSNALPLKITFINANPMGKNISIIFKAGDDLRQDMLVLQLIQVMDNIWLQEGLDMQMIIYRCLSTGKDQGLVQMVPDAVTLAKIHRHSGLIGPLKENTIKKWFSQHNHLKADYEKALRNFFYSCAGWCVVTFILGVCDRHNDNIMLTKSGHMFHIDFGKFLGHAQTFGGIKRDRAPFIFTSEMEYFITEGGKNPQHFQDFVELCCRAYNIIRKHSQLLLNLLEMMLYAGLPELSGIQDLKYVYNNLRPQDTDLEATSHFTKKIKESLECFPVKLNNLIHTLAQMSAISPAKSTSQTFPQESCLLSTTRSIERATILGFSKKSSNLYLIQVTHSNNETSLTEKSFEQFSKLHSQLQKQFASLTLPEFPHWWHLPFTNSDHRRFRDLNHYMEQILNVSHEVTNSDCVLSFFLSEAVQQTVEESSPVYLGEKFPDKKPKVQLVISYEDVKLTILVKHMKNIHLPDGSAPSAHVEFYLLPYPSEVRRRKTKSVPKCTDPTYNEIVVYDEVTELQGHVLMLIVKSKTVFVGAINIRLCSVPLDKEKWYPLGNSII

CS(=O)(=O)NCC[C@H](NC(=O)c1cncc2c1cnn2-c1ccc(F)cc1)c1ccnc(S(C)(=O)=O)c1 [BI 9307]
inactive: residual activity [1] 100% | residual activity [2] 91% | residual activity [3] 86% | inhibition [4] -2.26% | residual activity [5] 84% | residual activity [6] 100% | residual activity [7] 100% | residual activity [8] 100% | residual activity [9] 100% | residual activity [10] 98% | residual activity [11] 100% | residual activity [12] 100% | residual activity [13] 100% | residual activity [14] 100% | residual activity [15] 75% | residual activity [16] 95% | residual activity [17] 84% | residual activity [18] 100% | inhibition [19] 10.8% | residual activity [20] 100% | residual activity [21] 100% | residual activity [22] 100% | residual activity [23] 100% | residual activity [24] 100% | inhibition [25] 3.49% | residual activity [26] 100% | residual activity [27] 100% | residual activity [28] 90% | residual activity [29] 100% | residual activity [30] 100% | residual activity [31] 100% | residual activity [32] 100% | residual activity [33] 100% | residual activity [34] 96% | residual activity [35] 100% | residual activity [36] 100% | residual activity [37] 78% | residual activity [38] 74% | residual activity [39] 100%

CS(=O)(=O)c1cc(C2(NC(=O)c3cncc4c3cnn4-c3ccc(F)cc3)CC2)ccn1 [BI 639667]
inactive: residual activity [1] 90% | residual activity [2] 90% | residual activity [3] 93% | inhibition [4] 13.2% | residual activity [5] 89% | residual activity [6] 100% | residual activity [7] 91% | residual activity [8] 98% | residual activity [9] 100% | residual activity [10] 70% | residual activity [11] 75% | residual activity [12] 100% | residual activity [13] 79% | residual activity [14] 100% | residual activity [15] 100% | residual activity [16] 100% | residual activity [17] 100% | residual activity [18] 100% | inhibition [19] 13.3% | residual activity [20] 75% | residual activity [21] 77% | residual activity [22] 100% | residual activity [23] 97% | residual activity [24] 100% | inhibition [25] -2.44% | residual activity [26] 56% | residual activity [27] 86% | residual activity [28] 100% | residual activity [29] 62% | residual activity [30] 79% | residual activity [31] 81% | residual activity [32] 100% | residual activity [33] 75% | residual activity [34] 100% | residual activity [35] 94% | residual activity [36] 100% | residual activity [37] 74% | residual activity [38] 71% | residual activity [39] 68%
